# Test results as given in article PMC8727943, “Identification and characterization of a novel glutaminase inhibitor” (FEBS Open Bio, 2021).
# Where “and” joins values, the source holds several entries; their conditions need not be identical. Equal entries are not always repeated. Entries after “also recorded” stand apart in the source; their conditions may differ. Where two headings read alike, the source gives them in different places.
# What was measured:
# GLS1 = conditions: cited from earlier work; for potency of GLS1 inhibition in vitro: varying with cell types; for fold increased inhibitory efficiency compared with DON and BPTES: GLS inhibitors
# human CD4+ T cells = assay: CFSE-based anti-CD3/CD28-induced CD4+ T-cell proliferation assay; conditions: for percentage of proliferating cells (CFSE dilution), mean: compound 25 µM, anti-CD3/CD28 beads 1:1, 96 h, stimulated control 71.70% ± 1.60
# Procedure: Human CD4+ T cells were isolated from buffy coats of healthy donors (obtained from Blodbanken, Oslo, Norway) using the Dynabeads CD4 Positive Isolation Kit (Life Technologies AS, Norway) according to the manufacturer's protocol. […] After 4 days of incubation, beads were removed; cells were washed with 1x PBS, and T‐cell proliferation was assessed by measuring the CFSE dilution using flow cytometry.
# [1] = system: anti-CD3/CD28-induced CD4+ T cells; conditions: cited from earlier work
# [2] = target: T1, recombinant human glutaminase Δ129GAC (Homo sapiens, UniProt O94925); assay: Coupled GLS/GDH enzyme assay (HTS and dose response), NADH readout; type: biochemical; conditions: for IC50: 10-point dose response, twofold serial dilution 0.39–200 µM, nonlinear curve fitting, read-out: IC50 for Δ129GAC inhibition; for inhibition at 10 µM: HTS, compound 10 µM, read-out: inhibition of Δ129GAC, positive hits of HTS counter screen; for inhibition of His-Δ129GAC reached in the dose response: dose response 0.39–200 µM
# T1 construct: to generate peptides from amino acids 17‐598 and 73‐598 and 130‐598, respectively; made in house; host or cells: Escherichia coli BL21DE3 Rosetta (pRARE)
# T1 sequence (O94925 130-598 isoform O94925-3): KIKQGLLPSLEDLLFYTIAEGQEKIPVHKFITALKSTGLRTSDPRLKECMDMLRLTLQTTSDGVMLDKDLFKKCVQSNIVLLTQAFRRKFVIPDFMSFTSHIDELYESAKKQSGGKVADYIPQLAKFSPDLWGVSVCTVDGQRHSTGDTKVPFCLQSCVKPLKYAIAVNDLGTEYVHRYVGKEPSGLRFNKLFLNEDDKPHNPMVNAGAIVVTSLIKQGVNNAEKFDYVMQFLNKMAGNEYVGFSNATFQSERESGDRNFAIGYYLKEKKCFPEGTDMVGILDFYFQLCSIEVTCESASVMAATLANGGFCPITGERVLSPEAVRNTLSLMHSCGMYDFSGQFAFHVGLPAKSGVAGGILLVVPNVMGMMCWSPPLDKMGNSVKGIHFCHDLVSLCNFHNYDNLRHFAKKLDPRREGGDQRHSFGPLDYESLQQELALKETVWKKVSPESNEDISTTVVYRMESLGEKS
# Procedure: The assay used to determine GLS activity for HTS and enzyme kinetics measurements was adapted from Cassago et al.. In brief, this assay determines the activity of GLS by measuring the amount of NADH produced by glutamate dehydrogenase (GDH) when converting glutamate to α‐ketoglutarate. […] For HTS, the enzyme assay was run using the following conditions: 6 nM Δ129GAC, 50 mM Tris‐acetate, pH 8.6, 3 units of bovine serum GDH (Sigma‐Aldrich), 2 mM NAD^+ (Roche, Basel, Switzerland), 4 mM glutamine, 50 mM K2PO4 (MERCK, Kenilworth, NJ, USA) and 0.005% Tween‐20 (Sigma‐Aldrich). […] 10 nL of each compound was applied to the wells using an ECHO 550 liquid handler (Labcyte, Sunnyvale, CA, USA) followed by dispensing and mixing of 5 µL enzyme assay mix (Hamilton Microlab Star, Reno, NV, USA). This mix was incubated at room temperature for 1 h. Columns 23 and 24 on the plate contained wells for positive and negative controls to determine Z‐factor values. Z‐factor value was calculated based on formula 1: Formula1:[…] σp is the SD of the positive control, σn is the SD of the negative control, µp is the mean of the positive control and µn is the mean of the negative control. Following 1‐h incubation, 5 µL of glutamine (final concentration 4 mM) was added.
# To become enzymatically active, the first 16 and 72 amino acids at the N‐terminal must be sequentially deleted in the mitochondria from endogenous GLSGAC [6]. We cloned and expressed three variants of GAC, Δ16GAC, Δ72GAC and Δ129GAC (Fig. 1A,B). […] Next, Δ129GAC PCR product was cloned into pET‐24(b) which contained DNA encoding sequence for a His‐tag. […] Using His‐Δ129GAC, a HTS GAC enzyme activity assay was modified according to Cassago et al.. Briefly, the assay is a two‐step enzymatic assay where glutamine converted to glutamate by His‐Δ129GAC and further to α‐ketoglutarate and NADH by GDH (Fig. 1D). The glutamine consumption activity of His‐Δ129GAC was determined by assuming a stoichiometric ratio of one glutamine consumed to every molecule of NADH produced.
# His-Δ129GAC = target: T2, His-Δ129GAC (Homo sapiens, UniProt O94925); assay: Microscale thermophoresis (MST), labelled and nonlabelled; type: binding; conditions: 25 °C
# T2 construct: to generate peptides from amino acids 17‐598 and 73‐598 and 130‐598, respectively; made in house; host or cells: Escherichia coli BL21DE3 Rosetta (pRARE)
# T2 sequence (O94925 130-598 isoform O94925-3): T1 sequence (O94925 130-598 isoform O94925-3)
# Procedure: For the nonlabelled microscale thermophoresis (MST) assay, a 16‐point titration series of compound was done in a protein concentration of 100 nM Δ129GAC. […] Samples were loaded into Zero Background MST Premium Coated Capillaries, and measurements were done with a Monolith NT Label‐Free instrument (NanoTemper) at 25 °C using 20% MST power and 20% excitation power. […] For labelled analyses, MST Premium Coated Capillaries were used. The experiments were performed in duplicates and data presented as mean values ± standard deviation (SD). Data were normalized and nonlinear curve fitted using […] PRISM version 6 (La Jolla, CA, USA).
# [3] = target: T1, recombinant human glutaminase Δ129GAC; assay: Steady-state kinetic analysis of Δ129GAC in the presence of C19; type: biochemical
# Procedure: […] of NADH in the HTS was measured at 340 nm after 5 min, and quantification was done by using the extinction coefficient for NADH of 6220 M^−1·cm^−1 and 7.7 mm of path length. The total reaction volume was 80 µL, and the measurements were performed on a FluoStar Optima (BMB Labtech, Ortenberg, Germany) microplate reader. The experiments were done in 5 replicates at 12 different substrate concentrations ranging from 0.39 to 50 mM. The kinetics were determined at compound concentrations of 16, 25 and 30 µM.
# [4] = system: cytokine production of anti-CD3/CD28-stimulated CD4+ T cells; assay: Luminex screening assay of cytokines in T-cell culture supernatants; type: cell-based, human; conditions: compound 25 µM, day 3, normalized to stimulated control
# Procedure: Supernatants from T‐cell cultures were harvested after 3 days of stimulation and stored at −20 °C. Samples were diluted twofold, and the human magnetic luminex screening assay (R&D Systems, Minneapolis, MN, USA) for TNF‐α, IL‐6, IL‐10, INF‐g, IL‐4, IL‐17α, IL‐2 was performed according to manufacturer’s instructions. Data were analysed with Milliplex Analyst (Merck Millipore) and standard curves set according to manufacturer's recommendations.
# MDA-468 TNBC cells = assay: Thymidine incorporation proliferation assay, MDA-468; type: cell-based; conditions: 72 h, read-out: IC50 proliferation MDA-468, thymidine incorporation after 72 h
# [5] = target: T3, glutamate dehydrogenase (GDH) (Bos taurus, UniProt P00366); assay: GDH counter assay (secondary enzyme of the coupled assay); type: biochemical, bovine
# T3 construct: purchased Sigma‐Aldrich
# T3 sequence (P00366 58-558): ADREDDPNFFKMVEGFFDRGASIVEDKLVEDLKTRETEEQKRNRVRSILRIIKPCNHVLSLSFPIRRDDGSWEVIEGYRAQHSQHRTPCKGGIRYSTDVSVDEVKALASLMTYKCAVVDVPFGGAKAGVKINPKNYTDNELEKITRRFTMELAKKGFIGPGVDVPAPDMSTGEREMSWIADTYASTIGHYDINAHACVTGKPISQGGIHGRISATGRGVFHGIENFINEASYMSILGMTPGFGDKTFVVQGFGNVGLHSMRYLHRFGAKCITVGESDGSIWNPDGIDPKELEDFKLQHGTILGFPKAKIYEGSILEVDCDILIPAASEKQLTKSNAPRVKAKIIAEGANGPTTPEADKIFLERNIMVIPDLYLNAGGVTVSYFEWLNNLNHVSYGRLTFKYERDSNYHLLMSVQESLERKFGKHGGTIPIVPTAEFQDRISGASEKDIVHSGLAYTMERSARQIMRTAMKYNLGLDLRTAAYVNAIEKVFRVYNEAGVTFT
# MDA-231 TNBC cells = assay: Thymidine incorporation proliferation assay, MDA-231; type: cell-based; conditions: Homo sapiens, MDA-MB-231, 72 h, read-out: IC50 proliferation MDA-231
# cells = system: cells; set-up: method as in PMID 909432, PMID 4587126; conditions: cited from earlier work
# [6] = set-up: method as in PMID 30148361; conditions: cited from earlier work
# [7] = set-up: method as in PMID 30148361; conditions: cited from earlier work; remark: listed apart in the source
compound,measurement,setting,value
"O=C(Cc1ccccc1)Nc1nnc(CCSCCc2nnc(NC(=O)Cc3ccccc3)s2)s1 [BPTES, bis‐2‐(5‐phenylacetamido‐1,3,4‐thiadiazol‐2yl)ethyl sulfide]",potency of GLS1 inhibition in vitro,GLS1,[…]
same,"percentage of proliferating cells (CFSE dilution), mean",human CD4+ T cells,15.03%
same,"inhibition of cytokine production, active range",[1],high micromolar range
Sc1nc(-c2ccccc2)cn1N=Cc1ccncc1 [C2],inhibition of CD3/CD28-induced CD4+ T-cell proliferation,human CD4+ T cells,not
same,IC50,[2],2.3 µM
same,inhibition at 10 µM,[2],≥ 50%
same,inhibition of His-Δ129GAC reached in the dose response,[2],did not inhibit Δ129GAC activity by 100%; also recorded: incapable of completely inhibiting
Cc1ccc(-c2nnc3n2CCCCC3)cc1NC(=O)Cc1sc(S)nc1C [C15],inhibition of CD3/CD28-induced CD4+ T-cell proliferation,human CD4+ T cells,not
same,IC50,[2],5.7 µM
same,inhibition at 10 µM,[2],≥ 50%
same,inhibition of His-Δ129GAC reached in the dose response,[2],incapable of completely inhibiting
same,inhibition of His-Δ129GAC reached in the dose response,[2]; listed as 15,did not inhibit Δ129GAC activity by 100%
O=C(NCCNc1nc2ccccc2s1)c1cccnc1S [C19],Kd,"His-Δ129GAC; 100 nM nonlabelled Δ129GAC, C19 0–1000 µM, read-out: Kd, nonlabelled MST",20 ± 4.8 µM
same,Kd,"His-Δ129GAC; NT-647-labelled Δ129GAC 25 nM, read-out: Kd, labelled MST",14.7 µM
same,mode of inhibition with respect to the substrate,"[3]; C19 0, 16, 25, 30 µM",noncompetitive inhibitor; also recorded: noncompetitive inhibition
same,effect on Km of His-Δ129GAC,[3]; C19 0–30 µM,not significantly affected
same,K cat,[3]; [I] 16 µM C19,23.03 ± 0.6245 s⁻¹
same,V max,"[3]; [I] 16 µM C19, 6 nM Δ129GAC",44.22 ± 1.1990 pmol/s
same,K cat,[3]; [I] 25 µM C19,16.46 ± 0.6640 s⁻¹
same,V max,"[3]; [I] 25 µM C19, 6 nM Δ129GAC",31.59 ± 1.2750 pmol/s
same,K cat,[3]; [I] 30 µM C19,12.31 ± 0.2425 s⁻¹
same,V max,"[3]; [I] 30 µM C19, 6 nM Δ129GAC",23.63 ± 0.47 pmol/s and 23.63 ± 0.4655 pmol/s
same,"levels of TNF-α, IL-10, IL-2, IL-6, INF-γ, IL-17A and IL-4 in supernatants",[4],significant decrease; also recorded: significantly better than BPTES
same,IC50,"human CD4+ T cells; Homo sapiens, CD4+ T cell",11 µM
same,"percentage of proliferating cells (CFSE dilution), mean",human CD4+ T cells,9.16%
same,IC50,[2],6.8 µM
same,inhibition at 10 µM,[2],≥ 50%
"O=C(Cc1cccc(OC(F)(F)F)c1)Nc1ccc(CCCCc2nnc(NC(=O)Cc3ccccn3)s2)nn1 [CB839, Telaglenastat]",IC50,MDA-468 TNBC cells,0.0112 µM
same,effect on GDH activity,"[5]; 30 nM CB839, measured after 20 min, glutamate as substrate",no effect on GDH activity; also recorded: no inhibition effect
same,effect on GDH activity,[5]; 10 µM CB839 for 2 h,did not influence GDH activity
same,IC50,MDA-231 TNBC cells,0.00019 µM
"[N-]=[N+]=CC(=O)CC[C@H](N)C(=O)O [DON, 6‐diazo‐5‐oxonorleucine]",off-target toxicity to cells,cells,toxic to cells
CN1CCc2cccc3c2[C@H]1Cc1ccc(O)c(O)c1-3 [apomorphine],fold increased inhibitory efficiency compared with DON and BPTES,GLS1,over 100 fold
COc1ccc2c(c[n+](C)c3c4cc5c(cc4ccc23)OCO5)c1OC [chelerythrine],fold increased inhibitory efficiency compared with DON and BPTES,GLS1,over 100 fold
"CN(C)c1ccc(C2Nc3ccc4ccccc4c3C3=C2C(=O)CC(C)(C)C3)cc1Br (stereo not shown) [compound 968, 5‐(3‐Bromo‐4‐(dimethylamino)phenyl)‐2,2‐dimethyl‐2,3,5,6‐tetrahydrobenzo[a]phenanthridin‐4(1H)‐one]",aqueous solubility,[6],poor
same,potency of GLS1 inhibition in vitro,GLS1,2.5 µM
same,metabolic stability,[7],poor
O=c1c2ccccc2[se]n1-c1ccccc1 [ebselen],fold increased inhibitory efficiency compared with DON and BPTES,GLS1,over 100 fold
